For twelve molecules, IC50 results are on record in PubChem BioAssay AID1817 (Sanford-Burnham Center for Chemical Genomics, 2009).

Active and inactive are the calls of the source.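 Rule for the calls: active = displacement of at least 50% at 20 µM, with a fluorescence ratio check between 0.3 and a set limit; inactive = the rest.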 Bounds are passed on as bounds.

Sequence of E3 ubiquitin-protein ligase SIAH1 (Homo sapiens) (Q8IUQ4 whole entry, looked up): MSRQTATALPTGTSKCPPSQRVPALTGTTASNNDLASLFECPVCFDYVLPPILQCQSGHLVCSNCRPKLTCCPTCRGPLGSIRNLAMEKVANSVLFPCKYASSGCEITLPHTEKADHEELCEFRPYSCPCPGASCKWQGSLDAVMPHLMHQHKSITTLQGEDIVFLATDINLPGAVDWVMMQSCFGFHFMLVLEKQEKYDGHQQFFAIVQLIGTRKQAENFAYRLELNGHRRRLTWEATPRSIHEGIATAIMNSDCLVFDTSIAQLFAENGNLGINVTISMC

This assay has as its target E3 ubiquitin-protein ligase SIAH1 (Homo sapiens) (UniProt Q8IUQ4). As to the kind of experiment: Siah-1 peptide-binding antagonists, primary screen, biochemical, fluorescence polarization, rhodamine-plectin, uHTS (AID 1817). The note with it: Siah-1 / rhodamine-plectin peptide fluorescence polarization. In general terms: In fluorescence polarisation assays a small probe gives low polarisation when free and higher when bound to something large.
For `Cc1ccc(OCCCN2CCOCC2)cc1`, the IC50 is > 200 µM (inactive).

Regarding `CCCCNc1nnc(Cc2ccc(Cl)cc2)c(=O)[nH]1`, the IC50 was > 200 µM (inactive).

In the case of `COc1ccc(CCNC(=O)c2ccc(S(=O)(=O)N(C)c3ccccc3)cc2)cc1OC`, the IC50 is > 200 µM (inactive).

Regarding `Oc1ccc(N=Cc2sc3ccccc3c2Cl)cc1`, the IC50 result is “inactive”.

As to `CCC(C)[C@H](NC(=O)N1CCn2c1nc1ccccc12)C(=O)NCCc1ccc(OC)c(OC)c1` (some centres not stated), the IC50 was > 200 µM (inactive).

For the molecule `CCN(CC)CCOC(=O)c1ccc(N/C=C(/C#N)c2nc(-c3cc4ccccc4oc3=O)cs2)cc1`, the IC50 was 11.2 µM.

Consider `O=C(CC1Nc2cccc3cccc(c23)NC1=O)Nc1ccccc1` (configuration not stated), for which the IC50 is > 200 µM (inactive).

Regarding `Cc1ccc2c(c1)N(CC(=O)NCCc1ccc(Cl)cc1)C(=O)c1cccnc1O2`, the IC50 is > 200 µM (inactive).

Regarding `COCCn1nnnc1C(c1cc2ccc(OC)cc2[nH]c1=O)N1CCc2ccccc2C1` (configuration not stated), the IC50 was > 200 µM (inactive).

Consider `COC(=O)c1cc(NC(=O)c2ccccc2)c(=O)oc1/C=C/Nc1ccc(Oc2ccccc2)cc1`, for which the IC50 is > 200 µM (inactive).

Turning to `COc1cccc2cc(C(=O)N3CCc4ccccc43)c(=O)oc12`, the IC50 is > 200 µM (inactive).

Turning to `COc1cc(CC(=O)NCc2ccc3c(c2)OCO3)cc(OC)c1OC`, the IC50 is > 200 µM (inactive).

A word on the IC50: it is the concentration that gives 50% inhibition.
